What is called EC50 is the concentration at which the effect is half-maximal.

The target in this assay is T1, dCas9(N/C)-synLPAR1 (Homo sapiens, UniProt Q92633).
T1 construct: TEV cleavage site ENLYFQL (TCS(Q'L)) (C); P2A + puromycin resistance protein (C, cleaved yes); TEV cleavage site ENLYFQG (TCS(Q'G)) (C); T2A + MCP-P65-HSF1 (C, cleaved yes); expressed in transfected cells; host or cells: HTLA cells (HEK-293 stably expressing beta-arrestin2-TEV fusion)
The assay can be described thus: LPA dose-response of dCas9(N/C)-synLPAR1 (EYFP activation score, HTLA cells). The assay is classed as cell-based. The settings on record: sgEYFP, read-out: EC50 of LPA dose-dependent activation. As to the method: Transfection mixtures were vortexed for 10 seconds and incubated at room temperature for 20-30 minutes. Full media was removed from cells and replaced with experiment-specific transfection media prior to adding the DNA:PEI transfection mix as follows. For dCas9(N/C)-synBDKBR2 experiments, HTLA cells were transfected in DMEM+2% (v/v) FBS supplemented with bradykinin at indicated concentrations. The bradykinin transfection media was replaced after 20 hours with HTLA full media also supplemented with bradykinin, and incubated for an additional 24 hours. […]
For all EYFP reporter experiments, media was removed 44 or 48 hours post-transfection and cells were washed with PBS (1× phosphate buffer saline), trypsinized (0.05% trypsin-EDTA, Cat. #25300062, Gibco), and kept in 1×PBS on ice. […] 100,000 total events were recorded for each condition. Data was analysed and compensated using the FlowJo package (FLOWJO LLC). To calculate an EYFP activation score which integrates both reporter fluorescence intensity and % of activated cells the following formula was used as previously described (Xie et al., 2011). […]
The numerator (% EYFP^+ve×EYFP^mean) provides a weighted mean fluorescence accounting both for the strength of reporter activation (EYFP^mean) as well as population level activation (% EYFP^+ve), which penalizes OFF-state leakage. […]

T1 sequence (Q92633 with tags, fused parts or gaps): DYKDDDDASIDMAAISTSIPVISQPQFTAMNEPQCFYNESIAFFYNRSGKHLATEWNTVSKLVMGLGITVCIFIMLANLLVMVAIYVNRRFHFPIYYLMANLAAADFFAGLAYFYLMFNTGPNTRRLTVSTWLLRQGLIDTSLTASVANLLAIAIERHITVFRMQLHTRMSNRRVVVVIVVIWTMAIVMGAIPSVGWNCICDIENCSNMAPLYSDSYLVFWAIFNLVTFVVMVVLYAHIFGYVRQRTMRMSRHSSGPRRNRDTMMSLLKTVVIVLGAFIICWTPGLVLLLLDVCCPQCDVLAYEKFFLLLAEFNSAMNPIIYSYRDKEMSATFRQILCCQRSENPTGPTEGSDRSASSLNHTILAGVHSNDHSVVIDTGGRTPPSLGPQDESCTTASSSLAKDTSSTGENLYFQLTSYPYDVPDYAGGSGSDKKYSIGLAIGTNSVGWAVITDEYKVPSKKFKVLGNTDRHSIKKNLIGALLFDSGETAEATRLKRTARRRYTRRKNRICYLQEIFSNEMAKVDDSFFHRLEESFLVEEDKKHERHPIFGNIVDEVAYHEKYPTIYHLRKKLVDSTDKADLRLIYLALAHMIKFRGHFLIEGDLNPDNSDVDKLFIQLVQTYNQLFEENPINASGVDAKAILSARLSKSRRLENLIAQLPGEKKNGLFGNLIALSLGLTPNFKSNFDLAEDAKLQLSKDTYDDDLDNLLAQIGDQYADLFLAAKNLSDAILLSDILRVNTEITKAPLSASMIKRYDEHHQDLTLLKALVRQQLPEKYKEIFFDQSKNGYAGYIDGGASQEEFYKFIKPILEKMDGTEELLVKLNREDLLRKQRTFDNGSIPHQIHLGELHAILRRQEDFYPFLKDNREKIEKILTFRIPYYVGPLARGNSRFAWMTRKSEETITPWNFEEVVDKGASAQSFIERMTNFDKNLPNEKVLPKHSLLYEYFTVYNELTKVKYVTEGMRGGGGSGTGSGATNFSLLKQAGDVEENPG
T1 sequence (Q92633 with tags, fused parts or gaps): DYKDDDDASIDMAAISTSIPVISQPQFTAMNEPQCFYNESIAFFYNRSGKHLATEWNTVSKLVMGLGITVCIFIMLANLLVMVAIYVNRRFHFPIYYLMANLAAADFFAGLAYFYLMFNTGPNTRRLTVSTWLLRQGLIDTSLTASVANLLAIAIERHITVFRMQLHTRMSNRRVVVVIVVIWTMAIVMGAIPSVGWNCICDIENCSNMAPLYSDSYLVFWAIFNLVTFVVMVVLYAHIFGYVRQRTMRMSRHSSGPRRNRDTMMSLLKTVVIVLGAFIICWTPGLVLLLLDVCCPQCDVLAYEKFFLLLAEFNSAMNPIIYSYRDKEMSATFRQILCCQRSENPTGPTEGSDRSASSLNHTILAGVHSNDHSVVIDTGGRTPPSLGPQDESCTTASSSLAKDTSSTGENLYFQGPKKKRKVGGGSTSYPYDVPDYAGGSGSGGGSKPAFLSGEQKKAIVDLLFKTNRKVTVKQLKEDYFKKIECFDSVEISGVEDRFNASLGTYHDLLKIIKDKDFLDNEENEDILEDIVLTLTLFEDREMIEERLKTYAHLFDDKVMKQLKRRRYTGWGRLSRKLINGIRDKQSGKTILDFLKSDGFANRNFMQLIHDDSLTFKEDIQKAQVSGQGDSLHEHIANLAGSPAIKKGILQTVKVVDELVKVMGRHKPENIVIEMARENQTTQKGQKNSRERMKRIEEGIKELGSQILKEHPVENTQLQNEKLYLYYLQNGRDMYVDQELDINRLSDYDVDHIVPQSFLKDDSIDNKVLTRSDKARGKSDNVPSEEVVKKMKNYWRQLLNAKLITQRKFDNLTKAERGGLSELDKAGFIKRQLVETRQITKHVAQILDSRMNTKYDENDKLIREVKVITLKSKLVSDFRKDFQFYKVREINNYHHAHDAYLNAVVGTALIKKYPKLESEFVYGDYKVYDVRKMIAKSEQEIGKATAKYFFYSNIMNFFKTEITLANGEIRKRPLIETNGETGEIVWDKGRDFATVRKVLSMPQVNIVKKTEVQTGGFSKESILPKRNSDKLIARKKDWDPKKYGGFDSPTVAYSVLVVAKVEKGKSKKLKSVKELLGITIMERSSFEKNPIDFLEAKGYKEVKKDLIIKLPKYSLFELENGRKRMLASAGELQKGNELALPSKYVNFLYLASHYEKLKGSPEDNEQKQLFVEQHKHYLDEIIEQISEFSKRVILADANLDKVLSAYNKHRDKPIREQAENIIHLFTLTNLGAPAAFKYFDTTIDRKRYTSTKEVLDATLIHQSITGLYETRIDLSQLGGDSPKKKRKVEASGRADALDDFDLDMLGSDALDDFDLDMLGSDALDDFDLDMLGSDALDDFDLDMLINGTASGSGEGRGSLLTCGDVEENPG

For the substance 1-oleoyl lysophosphatidic acid [LPA], the EC50 was determined as 1.82 µM.

Source of the values: patent US20200207829A1, “CHIMERIC RECEPTORS” (Oxford University Innovation Limited, priority 2017, published 2020).
